Experimental findings from paper PMC12383145, “Fluorescent Peptides Internalize HeLa Cells and Kill Multidrug-Resistant Clinical Bacterial Isolates” (Antibiotics, 2025) are described below.

Several values for one entry are separate records, joined by “and”; a condition that tells them apart may be missing. Identical values can stand only once. Residues, ends and D or L forms follow the SMILES beside them. *: point of attachment. RhodamineB = CCN(CC)c1ccc2c(-c3ccccc3C(=O)*)c3ccc(=[N+](CC)CC)cc-3oc2c1

Holding throughout (format): cell-based
In data set [1] the test system is E. coli ATCC 25922. The settings on record: ATCC 25922, 24 h.
The test system of data set [2] is E. faecalis ATCC 29212. The settings on record: ATCC 29212, 24 h.
Data set [3] concerns K. pneumoniae ATCC 700603. The following applies: ATCC 700603, 24 h.
In data set [4] the test system is P. aeruginosa ATCC 27853. The following applies: ATCC 27853, 24 h.
The subject of data set [5] is S. aureus ATCC 25923. The following applies: ATCC 25923, 24 h.
The nature of data set [6]: MTT cytotoxicity assay in HeLa cells. (In general: Formazan colour is commonly taken as a measure of viable cells.)
The subject of data set [7] is MCF-7 cells. Nature of the data set: MTT cytotoxicity assay in MCF-7 cells. The settings on record: 200 µg/mL, 2 h. As for the experimental part:
An MTT assay was performed in MCF-7 cells with FAM-1 (FAM-RWQWRWQWR) and RhB-1 (RhB-RWQWRWQWR) peptides following a 2 h treatment.

A short description of data set [8]: Hemolysis assay.
The test system of data set [9] is erythrocytes. The data set is described as follows: Hemolysis assay. The following applies: 2 h.

By IC50 is commonly meant the concentration that gives 50% inhibition. A low value points to inhibition by little substance.

Regarding `CCN(CC)c1ccc2c(-c3ccccc3C(=O)N[C@@H](CCCNC(=N)N)C(=O)N[C@@H](Cc3c[nH]c4ccccc34)C(=O)N[C@@H](CCC(N)=O)C(=O)N[C@@H](Cc3c[nH]c4ccccc34)C(=O)N[C@@H](CCCNC(=N)N)C(=O)N[C@@H](Cc3c[nH]c4ccccc34)C(=O)N[C@@H](CCC(N)=O)C(=O)N[C@@H](Cc3c[nH]c4ccccc34)C(=O)N[C@@H](CCCNC(=N)N)C(N)=O)c3ccc(=[N+](CC)CC)cc-3oc2c1` [RhB-1, RhB-RWQWRWQWR] (RhodamineB-RWQWRWQWR-NH2), the Minimal bactericidal concentration (MBC) in data set [1] was over 105 µM; in [2] it was 52 µM; in [3], over 105 µM; in data set [4] it was over 105 µM; in data set [5], 52 µM. Besides, the Minimal inhibitory concentration (MIC) in data set [1] was over 105 µM; in data set [2] it was 52 µM; in data set [3], over 105 µM; in data set [4] it was over 105 µM; in data set [5], 26 µM. Moreover, the IC50 in data set [6] is 117 µg/mL and 61 µM. The compound further registered a cell population remaining in data set [7] of 8%. Also, the selectivity ratio in [8] came to 0.2. This compound also registered a hemolysis in data set [8] (Percentage of hemolysis) of 19%. Besides, the Therapeutic index in data set [9] amounted to 0.5.
